Results from US12391737B2, “Soluble NPY2 receptor agonists” (Boehringer Ingelheim International GmbH, priority 2020, dated 2025).

Assays:
Solubility determination = settings: for Sol6: pH 6; for Sol7: pH 7
Procedure, shortened: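 First, TFA-salt peptide was added to 0.1 M sodium diphosphate (pH 6.4 or 7.0) to 10 mg/ml and shaken 2 h at room temperature. Next, insoluble material was filtered off. Finally, filtrate and control, each 1 mg/ml in 50% acetonitrile, were compared by reversed-phase chromatography.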

[1] = target: T1, Human Neuropeptide Y2 Receptor (Homo sapiens, UniProt P49146); test: Radioligand binding competition assay (RLB); settings: Table 3, 125I-PYY(1-36) competition; read-out: Ki
T1 construct: purchased CHEMICON HTS066M
T1 sequence (P49146 1-381): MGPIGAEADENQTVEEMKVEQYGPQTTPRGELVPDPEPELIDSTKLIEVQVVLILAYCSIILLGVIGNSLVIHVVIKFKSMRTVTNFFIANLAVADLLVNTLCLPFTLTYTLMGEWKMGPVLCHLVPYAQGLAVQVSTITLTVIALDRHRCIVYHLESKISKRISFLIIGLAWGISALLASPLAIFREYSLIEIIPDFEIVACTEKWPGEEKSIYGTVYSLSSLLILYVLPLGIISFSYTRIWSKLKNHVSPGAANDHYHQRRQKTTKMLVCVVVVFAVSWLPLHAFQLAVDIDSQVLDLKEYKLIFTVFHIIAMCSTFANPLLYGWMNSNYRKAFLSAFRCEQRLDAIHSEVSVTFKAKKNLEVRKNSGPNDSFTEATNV
Method: The filtration RLB assay was carried out in 96-well plates in a final volume of 100 μl per well. Freeze-dried test peptides were dissolved in 100% dimethyl sulfoxide (DMSO) to stock solutions of 1 mM and serial dilutions were performed in assay buffer (50 mM HEPES, 5 mM MgCl2, 1 mM CaCl2, pH 7.4) containing 0.2% ovalbumin. […] Next, 80 μL membranes (HTS066M, ChemiSCREEN™ Human Neuropeptide Y2 Receptor Membrane Preparation, CHEMICON) were added to each well to give a final protein concentration of 0.5 μg/well. The plates were sealed and incubated at room temperature for 2 hours in a plate shaker set at 400 rpm. The incubation was stopped by vacuum filtration onto 0.5% polyethylene amine (PE) presoaked GF/C filters using a 96-well FilterMate™ harvester (Perkin Elmer) followed by four washes with 300 μl/well ice-cold wash buffer (50 mM HEPES, 500 mM NaCl, pH7.4). Filter plates were then dried for 60 min at room temperature and the bottom of the plates was sealed with backing tape UniFilter-96. Finally, 50 μl/well scintillation counter cocktail (Microscint20, Packard) was added and the radioactivity was counted in the Packard TopCount NXT scintillation counter. IC50 values (the half maximal inhibitory concentration of the agonist) were calculated by nonlinear regression analysis of sigmoidal dose-response curves.

| Sol6 (Solubility determination) [mg/mL] | Sol7 (Solubility determination) [mg/mL] | Ki [1] [nM] | SMILES |
| --- | --- | --- | --- |
| 9.9 | 10.0 | 9.07 | CC(C)CC(=O)N[C@@H](C)C(=O)N1CCC[C@H]1C(=O)N[C@@H](CCC(=O)O)C(=O)N[C@@H](CCCCNC(=O)CCCCCNC(=O)CC[C@H](NC(=O)CCCCCCCCCCCCCCCCC(=O)O)C(=O)O)C(=O)N1CCC[C@H]1C(=O)N[C@@H](CCC(=O)O)C(=O)N[C@@H](CCC(=O)O)C(=O)N[C@@H](CC(=O)O)C(=O)N[C@@H](C)C(=O)N[C@@H](CCC(=O)O)C(=O)N1CCC[C@H]1C(=O)N[C@@H](CCC(=O)O)C(=O)N[C@@H](CCC(=O)O)C(=O)N[C@@H](CC(C)C)C(=O)N[C@@H](CCC(N)=O)C(=O)N[C@@H](CCCNC(=N)N)C(=O)N[C@@H](Cc1ccc(O)cc1)C(=O)N[C@@H](Cc1ccc(O)cc1)C(=O)N[C@H](C(=O)N[C@@H](CO)C(=O)N[C@@H](CC(C)C)C(=O)N[C@@H](CCCNC(=N)N)C(=O)N[C@@H](Cc1c[nH]cn1)C(=O)N[C@@H](Cc1ccc(O)cc1)C(=O)N[C@@H](Cc1ccc(O)cc1)C(=O)N[C@@H](CCC(N)=O)C(=O)N[C@@H](Cc1c[nH]c2ccccc12)C(=O)N[C@@H](CC(C)C)C(=O)N[C@H](C(=O)N[C@@H](CCCNC(=N)N)C(=O)N[C@@H](CCC(N)=O)C(=O)N[C@@H](CCCNC(=N)N)C(=O)N[C@@H](Cc1ccc(O)cc1)C(N)=O)[C@@H](C)O)C(C)C [Compound 68, N{alpha-4}-(3-methylbutanoyl)-N{epsilon-7}-(6-[(4S)-4-carboxy-4-(17-carboxyheptadecanamido)butanamido]hexanoyl)-[4A,7K,9E,13E,18Q,22V,28Y,29Q,30W,31L]-hPYY(4-36)] |
| 8.4 | 8.9 | 0.93 | CC(C)CC(=O)N[C@@H](C)C(=O)N1CCC[C@H]1C(=O)N[C@@H](C)C(=O)N[C@@H](CCCCNC(=O)CCCCCNC(=O)CC[C@H](NC(=O)CCCCCCCCCCCCCCCCC(=O)O)C(=O)O)C(=O)N1CCC[C@H]1C(=O)N[C@@H](CCC(=O)O)C(=O)N[C@@H](C)C(=O)N[C@@H](CC(=O)O)C(=O)N[C@@H](C)C(=O)N[C@@H](CO)C(=O)N1CCC[C@H]1C(=O)N[C@@H](CCC(=O)O)C(=O)N[C@@H](CCC(=O)O)C(=O)N[C@@H](CC(C)C)C(=O)N[C@@H](CCC(N)=O)C(=O)N[C@@H](CCCNC(=N)N)C(=O)N[C@@H](Cc1ccc(O)cc1)C(=O)N[C@@H](Cc1ccc(O)cc1)C(=O)N[C@H](C(=O)N[C@@H](CCC(=O)O)C(=O)N[C@@H](CC(C)C)C(=O)N[C@@H](CCCNC(=N)N)C(=O)N[C@@H](Cc1c[nH]cn1)C(=O)N[C@@H](Cc1ccc(O)cc1)C(=O)N[C@@H](Cc1ccc(O)cc1)C(=O)N[C@@H](CC(N)=O)C(=O)N[C@@H](Cc1c[nH]c2ccccc12)C(=O)N[C@@H](CC(C)C)C(=O)N[C@H](C(=O)N[C@@H](CCCNC(=N)N)C(=O)N[C@@H](CCC(N)=O)C(=O)N[C@@H](CCCNC(=N)N)C(=O)N[C@@H](Cc1ccc(O)cc1)C(N)=O)[C@@H](C)O)C(C)C [Compound 94, N{alpha-4}-(3-methylbutanoyl)-N{epsilon-7}-(6-[(4S)-4-carboxy-4-(17-carboxyheptadecanamido)butanamido]hexanoyl)-[4A,6A,7K,9E,10A,18Q,22V,23E,28Y,30W,31L]-hPYY(4-36)] |
| >10.0 | 10.0 | 34.7 | CC(C)CC(=O)N[C@@H](C)C(=O)N1CCC[C@H]1C(=O)N[C@@H](CCC(=O)O)C(=O)N[C@@H](CCCCNC(=O)CCCCCNC(=O)CC[C@H](NC(=O)CCCCCCCCCCCCCCCCC(=O)O)C(=O)O)C(=O)N1CCC[C@H]1C(=O)N[C@@H](CCC(=O)O)C(=O)N[C@@H](CCC(=O)O)C(=O)N[C@@H](CC(=O)O)C(=O)N[C@@H](C)C(=O)N[C@H](C(=O)N1CCC[C@H]1C(=O)N[C@@H](CCC(=O)O)C(=O)N[C@@H](CCC(=O)O)C(=O)N[C@@H](CC(C)C)C(=O)N[C@@H](CCC(N)=O)C(=O)N1CCC[C@H]1C(=O)N[C@@H](Cc1ccc(O)cc1)C(=O)N[C@@H](Cc1ccc(O)cc1)C(=O)N[C@H](C(=O)N[C@@H](CO)C(=O)N[C@@H](CC(C)C)C(=O)N[C@@H](CCCNC(=N)N)C(=O)N[C@@H](Cc1c[nH]cn1)C(=O)N[C@@H](Cc1ccc(O)cc1)C(=O)N[C@@H](Cc1ccc(O)cc1)C(=O)N[C@@H](CC(N)=O)C(=O)N[C@@H](Cc1c[nH]c2ccccc12)C(=O)N[C@@H](CC(C)C)C(=O)N[C@H](C(=O)N[C@@H](CCCNC(=N)N)C(=O)N[C@@H](CCC(N)=O)C(=O)N[C@@H](CCCNC(=N)N)C(=O)N[C@@H](Cc1ccc(O)cc1)C(N)=O)[C@@H](C)O)C(C)C)[C@@H](C)O [Compound 31, N{alpha-4}-(3-methylbutanoyl)-N{epsilon-7}-(6-[(4S)-4-carboxy-4-(17-carboxyheptadecanamido)butanamido]hexanoyl)[4A,7K,9E,13T,18Q,19P,22V,28Y,30W,31L]-hPYY(4-36)] |
| 10.0 | >10.0 | 1.54 | CC[C@H](C)[C@H](NC(=O)[C@H](CCC(=O)O)NC(=O)[C@H](CCC(=O)O)NC(=O)[C@@H]1CCCN1C(=O)[C@H](CCC(=O)O)NC(=O)[C@H](C)NC(=O)[C@H](CC(=O)O)NC(=O)[C@H](C)NC(=O)[C@H](CCC(=O)O)NC(=O)[C@@H]1CCCN1C(=O)[C@H](CCCCNC(=O)CCCCCNC(=O)CC[C@H](NC(=O)CCCCCCCCCCCCCCCCC(=O)O)C(=O)O)NC(=O)[C@H](CCC(=O)O)NC(=O)[C@@H]1CCCN1C(=O)[C@H](C)NC(=O)CC(C)C)C(=O)N[C@@H](CCC(N)=O)C(=O)N[C@@H](CCCNC(=N)N)C(=O)N[C@@H](Cc1ccc(O)cc1)C(=O)N[C@@H](Cc1ccc(O)cc1)C(=O)N[C@H](C(=O)N[C@@H](C)C(=O)N[C@@H](CC(C)C)C(=O)N[C@@H](CCCNC(=N)N)C(=O)N[C@@H](Cc1c[nH]cn1)C(=O)N[C@@H](Cc1ccc(O)cc1)C(=O)N[C@@H](Cc1ccc(O)cc1)C(=O)N[C@@H](CC(N)=O)C(=O)N[C@@H](Cc1c[nH]c2ccccc12)C(=O)N[C@@H](CC(C)C)C(=O)N[C@H](C(=O)N[C@@H](CCCNC(=N)N)C(=O)N[C@@H](CCC(N)=O)C(=O)N[C@@H](CCCNC(=N)N)C(=O)N[C@@H](Cc1ccc(O)cc1)C(N)=O)[C@@H](C)O)C(C)C [Compound 131, N{alpha-4}-(3-methylbutanoyl)-N{epsilon-7}-(6-[(4S)-4-carboxy-4-(17-carboxyheptadecanamido)butanamido]hexanoyl)-[4A,7K,9E,10A,13E,17I,18Q,22V,23A,28Y,30W,31L]-hPYY(4-36)] |
